From ChEMBL document CHEMBL4308829, “Design and Synthesis of Novel Positive Allosteric Modulators of α7 Nicotinic Acetylcholine Receptors with the Ability To Rescue Auditory Gating Deficit in Mice” (J Med Chem, 2018) come the findings set out here.

Active and inactive are the calls of the source.

For assay [1], the target named is T1, Neuronal acetylcholine receptor subunit alpha-7 (Homo sapiens, UniProt P36544). Nature of the assay: Positive allosteric modulation of human alpha7 nAChR expressed in Xenopus laevis oocytes assessed as increase in acetylcholine-induced channel current at 10 uM at -90 mV holding potential preincubated for 2 mins followed by co-application with acetylcholine for 10 secs by two-electrode voltage clamp method relative to control. Format: cell-based.
T1 sequence (P36544 whole entry): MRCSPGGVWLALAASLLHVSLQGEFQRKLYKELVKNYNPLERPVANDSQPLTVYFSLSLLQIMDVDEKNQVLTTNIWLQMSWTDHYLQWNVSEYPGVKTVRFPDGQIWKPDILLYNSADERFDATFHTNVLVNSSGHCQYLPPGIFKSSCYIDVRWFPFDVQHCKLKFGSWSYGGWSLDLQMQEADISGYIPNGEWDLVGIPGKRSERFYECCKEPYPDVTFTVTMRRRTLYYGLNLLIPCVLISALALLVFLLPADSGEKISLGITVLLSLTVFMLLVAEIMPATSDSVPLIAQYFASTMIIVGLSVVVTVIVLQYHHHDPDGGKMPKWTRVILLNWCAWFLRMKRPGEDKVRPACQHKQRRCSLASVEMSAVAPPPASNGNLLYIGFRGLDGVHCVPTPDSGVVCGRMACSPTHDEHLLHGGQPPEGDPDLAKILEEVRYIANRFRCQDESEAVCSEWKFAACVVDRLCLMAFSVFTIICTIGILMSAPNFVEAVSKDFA

Assay [2] has as its target T1, Neuronal acetylcholine receptor subunit alpha-7. Nature of the assay: Agonist activity at human alpha7 nAChR expressed in Xenopus laevis oocytes assessed as induction of channel current at -90 mV holding potential by two-electrode voltage clamp method. Type of assay: cell-based.
Assay [3] has the same target. Nature of the assay: Positive allosteric modulation of human alpha7 nAChR expressed in Xenopus laevis oocytes assessed as increase in acetylcholine-induced channel current at -90 mV holding potential preincubated for 2 mins followed by co-application with acetylcholine for 10 secs by two-electrode voltage clamp method. Type of assay: cell-based.
For assay [4], the system named is Mus musculus. Nature of the assay: Anti-schizophrenic activity in C57BL/6J mouse assessed as protection against MK-801-induced auditory gating deficit by measuring prepulse inhibition impairment at 1 mg/kg, ip at 8 to 16 dB prepulse intensity (reference value: 11%). Type of assay: functional. More on the design: scale not given: the % may be the effect or the level left.

As for `Cc1cc(Cl)cc(Nc2nc3ncn(-c4c(C)cccc4Cl)c(=O)c3s2)c1`, in assay [1], the %max was 305%. In addition, the result in assay [2] was inactive.
Consider `Cc1cccc(Cl)c1-n1cnc2nc(SCc3cccc(F)c3)sc2c1=O`, for which the EC50 in assay [3] came out at 7.65 µM. For the same molecule, the %max in assay [1] turned out to be 1140%. Further, the outcome in assay [2] was inactive.
Turning to `Cc1ccc(CSc2nc3ncn(-c4c(C)cccc4Cl)c(=O)c3s2)cc1`, the %max in assay [1] is 321%. The result in assay [2] was inactive.
In the case of `Cc1ccc(Sc2nc3ncn(-c4c(C)cccc4Cl)c(=O)c3s2)cc1`, in assay [1], the %max stood at 226%. For the same molecule, in assay [2], the result was inactive.
Regarding `Cc1cccc(Cl)c1-n1cnc2nc(Nc3cccc(F)c3)sc2c1=O`, the %max in assay [1] turned out to be 450%. In assay [2], the result was inactive.
Consider `Cc1ccccc1Nc1nc2ncn(-c3c(C)cccc3Cl)c(=O)c2s1`, for which the %max in assay [1] is 300%. In addition, the outcome in assay [2] was inactive.
Consider `Cc1cccc(Cl)c1-n1cnc2nc(SCc3ccc(Br)cc3)sc2c1=O`, for which the %max in assay [1] amounted to 320%. For the same molecule, the result in assay [2] was inactive.
Taken in the same sequence, the figures for `Cc1cccc(Cl)c1-n1cnc2nc(Nc3ccncn3)sc2c1=O` were 101% and “inactive”.
As to `Cc1cccc(Cl)c1-n1cnc2nc(Nc3ccc(F)c(F)c3)sc2c1=O`, in assay [1], the %max came to 300%. Also, the result in assay [2] was inactive.
As for `Cc1ccc(C(=O)Nc2nc3ncn(-c4c(C)cccc4Cl)c(=O)c3s2)cc1`, in assay [3], the EC50 came to 20.4 µM. In assay [1], the %max worked out at 450%. For the same molecule, the result in assay [2] was inactive.
With `Cc1cccc(Cl)c1-n1cnc2nc(Nc3ccc(F)cc3)sc2c1=O`, the %max in assay [1] worked out at 250%. For the same molecule, the outcome in assay [2] was inactive.
With `Cc1cccc(Cl)c1-n1cnc2nc(SCc3ccc(Cl)cc3)sc2c1=O`, the EC50 in assay [3] worked out at 1.19 µM. In addition, in assay [1], the %max was 444%. Moreover, in assay [2], the outcome was inactive.
With `CN1CCN(C2=Nc3cc(Cl)ccc3Nc3ccccc32)CC1` [CLOZAPINE], the Activity in assay [4] turned out to be 32%.
Take `CCc1ccc(Nc2nc3ncn(-c4c(C)cccc4Cl)c(=O)c3s2)cc1`: in assay [1], the %max was 250%. Moreover, the outcome in assay [2] was inactive.
For `Cc1cccc(Cl)c1-n1cnc2nc(SCc3ccc(F)cc3)sc2c1=O`, the EC50 in assay [3] was 2.17 µM. For the same molecule, in assay [1], the %max was found to be 788%. In addition, the result in assay [2] was inactive.
With `Cc1ccc(CNc2nc3ncn(-c4c(C)cccc4Cl)c(=O)c3s2)cc1`, the %max in assay [1] is 111%. Besides, the outcome in assay [2] was inactive.
As to `Cc1cc(Nc2nc3ncn(-c4c(C)cccc4Cl)c(=O)c3s2)cc(C)c1C`, the %max in assay [1] was 600%. In addition, in assay [2], the result was inactive.
Take `O=c1c2sc(SCc3ccccc3)nc2ncn1-c1ccccc1F`: the %max in assay [1] was found to be 127%. Also, in assay [2], the outcome was inactive.
Regarding `Cc1cccc(Cl)c1-n1cnc2nc(Nc3ccccc3)sc2c1=O`, in assay [1], the %max came out at 300%. Moreover, the result in assay [2] was inactive.
As for `O=c1c2sc(SCc3ccccc3)nc2ncn1-c1ccc(Cl)cc1`, in assay [1], the %max is 104%. The outcome in assay [2] was inactive.
For the molecule `Cc1cccc(Cl)c1-n1cnc2nc(SCc3ccccc3F)sc2c1=O`, the EC50 in assay [3] is 2.05 µM. Also, the %max in assay [1] came to 558%. In addition, in assay [2], the result was inactive.
On to `Cc1cccc(Cl)c1-n1cnc2nc(Nc3ccccc3F)sc2c1=O`, for which the %max in assay [1] turned out to be 200%. Besides, in assay [2], the result was inactive.
For the molecule `Cc1ccc(N(C)c2nc3ncn(-c4c(C)cccc4Cl)c(=O)c3s2)cc1`, the %max in assay [1] is 107%. The result in assay [2] was inactive.
As for `Cc1ccc(Nc2ccc3ncn(-c4c(C)cccc4Cl)c(=O)c3c2)cc1`, the %max in assay [1] was 63%. Further, the outcome in assay [2] was inactive.
Regarding `Cc1ccc(S(=O)(=O)Nc2nc3ncn(-c4c(C)cccc4Cl)c(=O)c3s2)cc1`, in assay [1], the %max amounted to 97%. The result in assay [2] was inactive.
As for `Cc1cccc(Cl)c1-n1cnc2nc(Nc3cccc(Cl)c3)sc2c1=O`, the %max in assay [1] came to 300%. Moreover, the outcome in assay [2] was inactive.
As to `Cc1nc(Cl)cc(Nc2nc3ncn(-c4c(C)cccc4Cl)c(=O)c3s2)n1`, in assay [1], the %max worked out at 320%. In assay [2], the outcome was inactive.
Regarding `O=c1c2sc(SCc3ccccc3)nc2ncn1-c1ccccc1Cl`, in assay [1], the %max is 217%. For the same molecule, the outcome in assay [2] was inactive.
Regarding `Cc1cc(C)cc(Nc2nc3ncn(-c4c(C)cccc4Cl)c(=O)c3s2)c1`, the %max in assay [1] was found to be 1100%. For the same molecule, the result in assay [2] was inactive.
In the case of `Cc1cccc(Cl)c1-n1cnc2nc(Nc3ccc(Cl)cc3)sc2c1=O`, the %max in assay [1] stood at 200%. Further, in assay [2], the outcome was inactive.
Consider `Cc1cccc(Cl)c1-n1cnc2nc(Nc3ccccn3)sc2c1=O`, for which the “%max” value in assay [1] was “inactive”. Further, in assay [2], the outcome was inactive.
As to `O=c1c2sc(SCc3ccccc3)nc2ncn1-c1cccc(F)c1`, the %max in assay [1] was found to be 119%. Besides, the result in assay [2] was inactive.
In the case of `Cc1cccc(Nc2nc3ncn(-c4c(C)cccc4Cl)c(=O)c3s2)c1`, the %max in assay [1] came to 1540%. For the same molecule, the outcome in assay [2] was inactive.
Take `O=c1c2sc(SCc3ccccc3)nc2ncn1-c1ccc(F)cc1`: in assay [1], the %max came to 75%. Also, the outcome in assay [2] was inactive.
With `CCCNc1nc2ncn(-c3c(C)cccc3Cl)c(=O)c2s1`, the “%max” value in assay [1] is “inactive”. Also, the outcome in assay [2] was inactive.
In the case of `Cc1cccc(Cl)c1-n1cnc2nc(SCc3ccc(F)cc3F)sc2c1=O`, the EC50 in assay [3] was 3.54 µM. Further, the %max in assay [1] was determined as 1050%. Besides, the result in assay [2] was inactive.
Turning to `Cc1cccc(Cl)c1-n1cnc2nc(Nc3cc(Cl)ncn3)sc2c1=O`, the %max in assay [1] stood at 200%. Besides, in assay [2], the outcome was inactive.
`Cc1cccc(Cl)c1-n1cnc2nc(SCCCc3ccccc3)sc2c1=O`: the %max in assay [1] came out at 174%. In assay [2], the outcome was inactive.
As for `Cc1cccc(Cl)c1-n1cnc2nc(Nc3ccc(Br)cc3)sc2c1=O`, the %max in assay [1] came out at 150%. The outcome in assay [2] was inactive.
As for `COc1ccc(CSc2nc3ncn(-c4c(C)cccc4Cl)c(=O)c3s2)cc1`, the %max in assay [1] was 292%. Also, in assay [2], the result was inactive.
In the case of `Cc1cccc(Cl)c1-n1cnc2nc(NCc3ccccc3)sc2c1=O`, the “%max” value in assay [1] was “inactive”. Further, the outcome in assay [2] was inactive.
For the molecule `Cc1ccc(Nc2nc3ncn(-c4c(C)cccc4Cl)c(=O)c3s2)cc1`, the EC50 in assay [3] came out at 8.45 µM. Further, in assay [1], the %max was determined as 1620%. Also, in assay [2], the outcome was inactive.
On to `Cc1cccc(Cl)c1-n1cnc2nc(SCCc3ccccc3)sc2c1=O`, for which the %max in assay [1] amounted to 112%. In assay [2], the result was inactive.
In the case of `Cc1ccc(-c2nc3ncn(-c4c(C)cccc4Cl)c(=O)c3s2)cc1`, in assay [1], the %max was 185%. Moreover, the outcome in assay [2] was inactive.
On to `Cc1cccc(Cl)c1-n1cnc2nc(Nc3ccc(OC(F)(F)F)cc3)sc2c1=O`, for which the %max in assay [1] turned out to be 200%. In addition, the result in assay [2] was inactive.
Take `Cc1ccccc1-n1cnc2nc(SCc3ccccc3)sc2c1=O`: the %max in assay [1] turned out to be 171%. The result in assay [2] was inactive.
Taken in the same sequence, the figures for `COc1ccc(Nc2nc3ncn(-c4c(C)cccc4Cl)c(=O)c3s2)cc1` were 200% and “inactive”.
Take `Cc1ccc(Nc2nc3ncn(-c4c(C)cccc4Cl)c(=O)c3s2)cc1C`: the %max in assay [1] is 650%. The result in assay [2] was inactive.
On to `Cc1ccc(Nc2nc3ncn(-c4c(C)cccc4Cl)c(=O)c3s2)cc1F`, for which, in assay [3], the EC50 worked out at 5.65 µM. The %max in assay [1] is 387%. Also, the outcome in assay [2] was inactive.
As to `Cc1cccc(Cl)c1-n1cnc2nc(Nc3ccc(Cl)nn3)sc2c1=O`, the “%max” value in assay [1] was “inactive”. The outcome in assay [2] was inactive.
Take `Cc1cccc(Cl)c1Nc1ncnc2nc(SCc3ccccc3)sc12`: the %max in assay [1] came out at 33%. The result in assay [2] was inactive.
